Assay results taken from US9493478B2, “Fused ring compound containing furan or salt thereof and pharmaceutical composition comprising same” (YUHAN CORPORATION, priority 2012, dated 2016).

Columns and labels:
Assay type in all cases: biochemical
PI3K β (p110β/p85α)(h) = PI3K β (p110β/p85α)(h) (Homo sapiens, UniProt P42338); assay: Assay for phosphatidylinositol 3-kinase beta (PI3Kβ) activity, PI3K-HTRF kit; settings: TR-FRET; enzyme 0.725 μg/ml, 10 μM PIP2, 10 μM ATP
Experimental: [The source words this procedure for another target and says it was used here with some conditions changed.] (§1) The compounds of the present invention were assayed for the activity of phosphatidylinositol 3-kinase gamma (PI3Kγ) by using a PI3K enzyme-homogenous time resolved fluorescence (PI3K-HTRF) kit, which is available from Upstate (Millipore Co, Billerica, Mass., USA).
(§2) Three kinds of buffer solutions including a phosphorylation reaction solution (a reaction buffer containing 40 mM MgCl2 which is available from Upstate was diluted 4 times and added with 5 mM DTT), a stop solution (STOP A and B solutions which are available from Upstate were mixed at a ratio of 3:1) and a fluorescence detection solution (Detection solutions A, B and C which are available from Upstate were mixed at a ratio of 1:1:18) were prepared. 1 mM of PIP2 substrate (phosphatidylinositol 4,5 biphosphate; Upstate), PI3Kγ (#14-558; Upstate) enzyme and 10 mM ATP (Sigma Aldrich Co., St. Louis, Mo., USA) were prepared. Each of PI3Kγ, 1 mM PIP2 and 10 mM ATP was diluted to 2.9 μg/ml (final reaction concentration: 1.45 μg/ml), 20 μM (final reaction concentration: 10 μM) and 40 μM (final reaction concentration: 10 μM), respectively. The buffer solution used for dilution and preparation process was the phosphorylation reaction solution. The stop solution was used for the termination of phosphorylation reaction, and the fluorescence detection solution was used for the detection of time-resolved fluorescence signals.
(§3) Each test sample was transferred to a 384 well low flange white flat bottom microplate (#3572, Corning Life Sciences, Lowell, Mass., USA) by using a multi 8-channel (Pipetman Neo multi 8×20, Gilson, Middleton, Wis., USA) to make a final phosphorylation reaction volume of 20 μl per each well. For the negative control, 5 μl of 14.4% DMSO and 10 μl of PIP2 substration solution were used, and 5 μl of 14.4% DMSO and 10 μl of PIP2/PI3Kγ mixed solution were used as the positive control. For the test group, 5 μl of a solution prepared by dissolving the compound obtained in Example in DMSO and 10 μl of PIP2/PI3Kγ mixed solution were used. Before the initiation of the phosphorylation reaction, sample compounds were pretreated with the enzyme for approximately 10 minutes, and then the phosphorylation reaction was induced by adding 5 μl of ATP. Since each of the test compound and ATP takes up 25% of the total volume, and PIP2 and PI3Kγ take up 50% of the total volume during the reaction, each solution was concentrated 4 and 2 times, respectively, before mixing the solutions. Subsequently, the test sample was gently shook for 3 minutes and subjected to a phosphorylation reaction for 90 minutes at room temperature, which was then added with 5 μl of the stop solution to terminate the phosphorylation reaction. In order to induce a time-resolved fluorescence reaction, 5 μl of the fluorescence detection solution was added to the sample. The fluorescence detection solution contains biotin-phosphatidylinositol 3,4,5-triphosphate (PIP3), streptavidin-labeled Allopycocyanin (APC) and europium-labeled Pleckstrin homology domain (the PIP3 binds to PH domain), and the time-resolved fluorescence reaction is induced by a series of reaction of PH domain and PIP3, and biotin and streptavidin. The sample was left to stand for 6 hours at room temperature, and the time-resolved fluorescence resonance energy transfer (TR-FRET) rate was measured (emission wavelength: 665 nm, 620 nm, excitation wavelength: 340 nm) by using a Flexstation3 Micro plate reader (Molecular Devices, USA). TR-FRET Rate and TR-Inhibition Rate were calculated based on Equations 1 and 2 below, and the results are expressed in IC50, which is the concentration of a compound that inhibits 50% of PI3Kγ activity in vitro. TR-FRET Rate=(665 nm emission wavelength/620 nm emission wavelength)×10000 <Equation 1> TR-FRET Inhibition Rate=[(TR-FRET Rate of Sample−TR-FRET Rate of Negative Control)/(TR-FRET Rate of Positive Control−TR-FRET Rate of Negative Control)]×100 <Equation 2> […]

PI3Kγ (p120γ)(h) = PI3Kγ (p120γ)(h) (Homo sapiens, UniProt P48736); assay: Assay for phosphatidylinositol 3-kinase gamma (PI3Kγ) activity, PI3K-HTRF kit; settings: TR-FRET; enzyme 1.45 μg/ml, 10 μM PIP2, 10 μM ATP
Sequence of PI3Kγ (p120γ)(h) (P48736 whole entry): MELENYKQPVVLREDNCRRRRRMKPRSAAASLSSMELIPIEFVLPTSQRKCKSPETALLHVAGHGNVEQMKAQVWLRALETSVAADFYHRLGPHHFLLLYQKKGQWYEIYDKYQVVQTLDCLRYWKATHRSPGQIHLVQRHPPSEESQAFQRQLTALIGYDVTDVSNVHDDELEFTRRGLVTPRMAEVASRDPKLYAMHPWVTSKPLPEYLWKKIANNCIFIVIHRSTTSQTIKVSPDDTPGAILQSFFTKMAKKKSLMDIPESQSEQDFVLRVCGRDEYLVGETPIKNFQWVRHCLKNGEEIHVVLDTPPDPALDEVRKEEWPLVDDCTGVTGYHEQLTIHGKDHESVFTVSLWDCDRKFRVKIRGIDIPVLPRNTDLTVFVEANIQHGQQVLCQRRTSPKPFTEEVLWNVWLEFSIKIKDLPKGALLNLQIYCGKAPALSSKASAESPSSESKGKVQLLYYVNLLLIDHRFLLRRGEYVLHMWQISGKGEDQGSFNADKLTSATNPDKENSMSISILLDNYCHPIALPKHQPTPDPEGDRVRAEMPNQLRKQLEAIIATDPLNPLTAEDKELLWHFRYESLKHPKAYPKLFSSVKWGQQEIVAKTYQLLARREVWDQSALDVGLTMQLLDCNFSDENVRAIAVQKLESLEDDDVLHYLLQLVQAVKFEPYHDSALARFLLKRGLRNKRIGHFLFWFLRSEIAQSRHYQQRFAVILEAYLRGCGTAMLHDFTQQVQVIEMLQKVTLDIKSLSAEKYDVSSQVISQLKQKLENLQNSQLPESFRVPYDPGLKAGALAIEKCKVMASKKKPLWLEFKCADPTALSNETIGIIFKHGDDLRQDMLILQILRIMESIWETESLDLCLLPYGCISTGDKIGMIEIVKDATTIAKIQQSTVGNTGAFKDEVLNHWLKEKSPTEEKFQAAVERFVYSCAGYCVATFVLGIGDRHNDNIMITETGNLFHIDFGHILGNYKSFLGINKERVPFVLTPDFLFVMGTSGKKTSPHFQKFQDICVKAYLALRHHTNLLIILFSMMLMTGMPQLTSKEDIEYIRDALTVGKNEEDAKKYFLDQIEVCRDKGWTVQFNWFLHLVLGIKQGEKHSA
Experimental: as §1, §2
(§4) Each test sample was transferred to a 384 well low flange white flat bottom microplate (#3572, Corning Life Sciences, Lowell, Mass., USA) by using a multi 8-channel (Pipetman Neo multi 8×20, Gilson, Middleton, Wis., USA) to make a final phosphorylation reaction volume of 20 μl per each well. For the negative control, 5 μl of 14.4% DMSO and 10 μl of PIP2 substration solution were used, and 5 μl of 14.4% DMSO and 10 μl of PIP2/PI3Kγ mixed solution were used as the positive control. For the test group, 5 μl of a solution prepared by dissolving the compound obtained in Example in DMSO and 10 μl of PIP2/PI3Kγ mixed solution were used. Before the initiation of the phosphorylation reaction, sample compounds were pretreated with the enzyme for approximately 10 minutes, and then the phosphorylation reaction was induced by adding 5 μl of ATP. Since each of the test compound and ATP takes up 25% of the total volume, and PIP2 and PI3Kγ take up 50% of the total volume during the reaction, each solution was concentrated 4 and 2 times, respectively, before mixing the solutions. Subsequently, the test sample was gently shook for 3 minutes and subjected to a phosphorylation reaction for 90 minutes at room temperature, which was then added with 5 μl of the stop solution to terminate the phosphorylation reaction. In order to induce a time-resolved fluorescence reaction, 5 μl of the fluorescence detection solution was added to the sample. The fluorescence detection solution contains biotin-phosphatidylinositol 3,4,5-triphosphate (PIP3), streptavidin-labeled Allopycocyanin (APC) and europium-labeled Pleckstrin homology domain (the PIP3 binds to PH domain), and the time-resolved fluorescence reaction is induced by a series of reaction of PH domain and PIP3, and biotin and streptavidin. The sample was left to stand for 6 hours at room temperature, and the time-resolved fluorescence resonance energy transfer (TR-FRET) rate was measured (emission wavelength: 665 nm, 620 nm, excitation wavelength: 340 nm) by using a Flexstation3 Micro plate reader (Molecular Devices, USA). TR-FRET Rate and TR-Inhibition Rate were calculated based on Equations 1 and 2 below, and the results are expressed in IC50, which is the concentration of a compound that inhibits 50% of PI3Kγ activity in vitro. TR-FRET Rate=(665 nm emission wavelength/620 nm emission wavelength)×10000 <Equation 1> TR-FRET Inhibition Rate=[(TR-FRET Rate of Sample−TR-FRET Rate of Negative Control)/(TR-FRET Rate of Positive Control−TR-FRET Rate of Negative Control)]×100 <Equation 2>

PI3Kδ (p110δ/p85α)(h) = PI3Kδ (p110δ/p85α)(h) (Homo sapiens, UniProt O00329); assay: Assay for phosphatidylinositol 3-kinase delta (PI3Kδ) activity, PI3K-HTRF kit; settings: TR-FRET; enzyme 0.725 μg/ml, 10 μM PIP2, 10 μM ATP
Sequence of PI3Kδ (p110δ/p85α)(h) (O00329 whole entry): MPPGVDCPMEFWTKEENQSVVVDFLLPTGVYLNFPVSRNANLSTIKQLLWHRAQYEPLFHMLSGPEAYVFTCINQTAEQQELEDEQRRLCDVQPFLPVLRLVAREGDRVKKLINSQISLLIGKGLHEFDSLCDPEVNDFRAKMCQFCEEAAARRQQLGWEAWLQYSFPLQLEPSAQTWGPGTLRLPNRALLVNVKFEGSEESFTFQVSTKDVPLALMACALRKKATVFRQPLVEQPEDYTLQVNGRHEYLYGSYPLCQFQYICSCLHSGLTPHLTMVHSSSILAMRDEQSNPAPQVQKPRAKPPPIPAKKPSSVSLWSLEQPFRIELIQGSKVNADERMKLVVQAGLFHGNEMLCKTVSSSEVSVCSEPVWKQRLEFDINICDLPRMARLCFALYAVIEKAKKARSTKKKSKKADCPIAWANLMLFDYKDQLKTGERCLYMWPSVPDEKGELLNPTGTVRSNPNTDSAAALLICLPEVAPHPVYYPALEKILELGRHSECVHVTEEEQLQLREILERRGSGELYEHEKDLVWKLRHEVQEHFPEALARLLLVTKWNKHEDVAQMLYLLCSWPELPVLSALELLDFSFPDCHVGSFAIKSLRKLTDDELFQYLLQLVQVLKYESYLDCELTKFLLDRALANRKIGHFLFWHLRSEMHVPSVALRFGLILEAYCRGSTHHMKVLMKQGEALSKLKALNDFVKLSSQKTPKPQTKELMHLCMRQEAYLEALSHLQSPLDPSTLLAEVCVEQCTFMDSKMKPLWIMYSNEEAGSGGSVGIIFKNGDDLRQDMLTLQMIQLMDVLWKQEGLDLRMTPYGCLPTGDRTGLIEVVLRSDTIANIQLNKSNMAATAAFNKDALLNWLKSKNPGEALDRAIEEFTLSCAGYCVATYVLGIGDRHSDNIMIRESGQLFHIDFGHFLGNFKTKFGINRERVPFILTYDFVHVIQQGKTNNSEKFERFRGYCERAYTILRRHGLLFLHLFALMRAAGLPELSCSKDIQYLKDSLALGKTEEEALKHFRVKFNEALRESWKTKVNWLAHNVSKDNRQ
Sequence of PI3Kδ (p110δ/p85α)(h) (P27986 whole entry partner): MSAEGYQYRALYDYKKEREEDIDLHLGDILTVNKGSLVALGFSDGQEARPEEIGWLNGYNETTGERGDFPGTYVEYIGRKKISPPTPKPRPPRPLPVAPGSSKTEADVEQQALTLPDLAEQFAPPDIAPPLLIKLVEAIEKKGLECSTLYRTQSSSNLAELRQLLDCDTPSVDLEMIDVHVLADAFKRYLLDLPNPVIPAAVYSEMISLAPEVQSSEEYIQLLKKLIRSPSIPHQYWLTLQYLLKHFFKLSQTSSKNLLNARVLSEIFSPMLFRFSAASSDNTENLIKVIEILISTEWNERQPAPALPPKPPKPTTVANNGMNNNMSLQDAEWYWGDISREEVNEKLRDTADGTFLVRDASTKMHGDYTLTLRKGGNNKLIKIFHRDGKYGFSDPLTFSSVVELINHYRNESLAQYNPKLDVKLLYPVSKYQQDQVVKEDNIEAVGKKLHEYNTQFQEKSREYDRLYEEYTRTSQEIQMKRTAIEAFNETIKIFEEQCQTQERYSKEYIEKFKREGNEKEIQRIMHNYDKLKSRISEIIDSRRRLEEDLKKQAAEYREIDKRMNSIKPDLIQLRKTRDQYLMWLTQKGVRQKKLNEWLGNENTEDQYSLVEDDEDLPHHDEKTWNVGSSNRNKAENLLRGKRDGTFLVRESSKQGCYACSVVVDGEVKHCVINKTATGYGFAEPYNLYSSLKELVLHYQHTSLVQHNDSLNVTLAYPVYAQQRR
Experimental: [The source words this procedure for another target and says it was used here with some conditions changed.] as §1, §2, §3

PI3Kα (p110α/p85α)(h) = PI3Kα (p110α/p85α)(h) (Homo sapiens, UniProt P42336); assay: Assay for phosphatidylinositol 3-kinase alpha (PI3Kα) activity, PI3K-HTRF kit; settings: TR-FRET; enzyme 0.3625 μg/ml, 10 μM PIP2, 10 μM ATP
Sequence of PI3Kα (p110α/p85α)(h) (P42336 whole entry): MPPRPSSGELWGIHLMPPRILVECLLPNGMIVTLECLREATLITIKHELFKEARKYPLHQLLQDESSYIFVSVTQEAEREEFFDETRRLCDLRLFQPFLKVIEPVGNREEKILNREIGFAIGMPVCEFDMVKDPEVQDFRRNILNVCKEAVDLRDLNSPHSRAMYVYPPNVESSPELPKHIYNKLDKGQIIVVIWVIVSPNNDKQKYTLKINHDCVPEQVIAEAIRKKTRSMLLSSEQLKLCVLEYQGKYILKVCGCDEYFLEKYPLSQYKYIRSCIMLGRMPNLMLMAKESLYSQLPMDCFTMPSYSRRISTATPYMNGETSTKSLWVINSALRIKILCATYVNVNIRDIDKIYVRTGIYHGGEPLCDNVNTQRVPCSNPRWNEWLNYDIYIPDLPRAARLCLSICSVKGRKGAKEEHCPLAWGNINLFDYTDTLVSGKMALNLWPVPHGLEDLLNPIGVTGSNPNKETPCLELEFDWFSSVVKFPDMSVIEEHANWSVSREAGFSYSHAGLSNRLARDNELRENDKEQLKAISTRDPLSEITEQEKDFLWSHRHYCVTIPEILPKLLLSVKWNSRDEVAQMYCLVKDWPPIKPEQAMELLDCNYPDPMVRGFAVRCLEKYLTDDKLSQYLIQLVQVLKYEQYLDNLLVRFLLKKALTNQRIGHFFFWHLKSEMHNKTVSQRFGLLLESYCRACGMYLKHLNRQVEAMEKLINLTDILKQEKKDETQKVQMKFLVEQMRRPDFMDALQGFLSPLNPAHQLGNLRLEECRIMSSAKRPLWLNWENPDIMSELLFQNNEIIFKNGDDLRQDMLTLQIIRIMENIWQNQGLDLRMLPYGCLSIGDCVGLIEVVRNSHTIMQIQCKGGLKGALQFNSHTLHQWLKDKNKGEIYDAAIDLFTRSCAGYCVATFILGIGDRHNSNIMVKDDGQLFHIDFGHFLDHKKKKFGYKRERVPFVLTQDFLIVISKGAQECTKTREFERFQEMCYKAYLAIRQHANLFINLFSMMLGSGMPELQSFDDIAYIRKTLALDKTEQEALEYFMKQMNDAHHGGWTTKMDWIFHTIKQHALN
Sequence of PI3Kα (p110α/p85α)(h) (P27986 whole entry partner): as the sequence (P27986 whole entry partner) above
Experimental: [The source words this procedure for another target and says it was used here with some conditions changed.] as §1, §2, §4

Sequence of PI3K β (p110β/p85α)(h) (P42338 whole entry): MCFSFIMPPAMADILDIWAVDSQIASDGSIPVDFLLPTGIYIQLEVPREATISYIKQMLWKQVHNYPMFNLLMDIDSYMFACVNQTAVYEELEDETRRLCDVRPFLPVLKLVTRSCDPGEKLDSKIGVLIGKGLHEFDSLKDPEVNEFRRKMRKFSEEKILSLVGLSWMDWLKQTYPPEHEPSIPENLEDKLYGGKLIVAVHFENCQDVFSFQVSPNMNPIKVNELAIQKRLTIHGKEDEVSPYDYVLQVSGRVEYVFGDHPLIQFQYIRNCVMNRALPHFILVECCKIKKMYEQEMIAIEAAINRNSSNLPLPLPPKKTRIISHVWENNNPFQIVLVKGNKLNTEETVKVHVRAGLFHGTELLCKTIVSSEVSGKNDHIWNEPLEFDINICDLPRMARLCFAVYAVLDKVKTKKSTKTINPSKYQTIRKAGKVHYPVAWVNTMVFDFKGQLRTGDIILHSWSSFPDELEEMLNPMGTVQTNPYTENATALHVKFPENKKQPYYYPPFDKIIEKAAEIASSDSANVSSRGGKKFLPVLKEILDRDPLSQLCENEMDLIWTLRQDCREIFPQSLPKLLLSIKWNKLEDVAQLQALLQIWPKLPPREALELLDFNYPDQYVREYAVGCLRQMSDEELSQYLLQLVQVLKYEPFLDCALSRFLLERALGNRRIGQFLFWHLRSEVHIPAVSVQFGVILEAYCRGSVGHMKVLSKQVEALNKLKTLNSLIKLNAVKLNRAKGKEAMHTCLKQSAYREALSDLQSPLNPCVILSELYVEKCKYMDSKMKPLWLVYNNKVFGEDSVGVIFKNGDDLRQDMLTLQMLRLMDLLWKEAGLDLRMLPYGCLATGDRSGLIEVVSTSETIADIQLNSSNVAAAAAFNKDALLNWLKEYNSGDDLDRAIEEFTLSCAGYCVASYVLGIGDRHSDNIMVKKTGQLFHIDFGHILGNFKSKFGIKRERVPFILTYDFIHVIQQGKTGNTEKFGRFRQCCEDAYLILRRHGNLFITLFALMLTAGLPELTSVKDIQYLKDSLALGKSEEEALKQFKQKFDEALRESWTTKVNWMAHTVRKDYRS
Sequence of PI3K β (p110β/p85α)(h) (P27986 whole entry partner): as the sequence (P27986 whole entry partner) above

Structure (SMILES) | IC50 (PI3K β (p110β/p85α)(h)) | IC50 (PI3Kγ (p120γ)(h)) | IC50 (PI3Kδ (p110δ/p85α)(h)) | IC50 (PI3Kα (p110α/p85α)(h))
O=C1NC(=O)/C(=C/c2cc3cncc(C#CC4CCCC4)c3o2)S1 [Example 435, (Z)-5-[{7-(Cyclopentylethynyl)furo[3,2-c]pyridin-2-yl}methylene]thiazolidine-2,4-dione] | 4340 nM | 48 nM | 4280 nM | 58 nM
Cn1cc(-c2cncc3cc(/C=C4\SC(=O)NC4=O)oc23)cn1 [Example 12, (Z)-5-[{7-(1-Methyl-1H-pyrazol-4-yl)furo[3,2-c]pyridin-2-yl}methylene]thiazolidine-2,4-dione] | 572 nM | 28 nM | > 10000 nM | 7 nM
Cc1cc(-c2cncc3cc(/C=C4\SC(=S)NC4=O)oc23)cc(C)c1OC(C)C [Example 197, (Z)-5-[{7-(4-Isopropoxy-3,5-dimethylphenyl)furo[3,2-c]pyridin-2-yl}methylene]-2-thioxothiazolidin-4-one] | > 10000 nM | 5 nM | > 10000 nM | 121 nM
O=C1NC(=S)S/C1=C\c1cc2cncc(-c3cc(Cl)c(S(=O)(=O)N4CCOCC4)c(Cl)c3)c2o1 [Example 343, (Z)-5-([7-{3,5-Dichloro-4-(morpholinosulfonyl)phenyl}furo[3,2-c]pyridin-2-yl]methylene)-2-thioxothiazolidin-4-one] | > 10000 nM | 4 nM | 53 nM | 19 nM
O=C1NC(=O)/C(=C/c2cc3cncc(C#Cc4ccccc4C(F)(F)F)c3o2)S1 [Example 526] | 1210 nM | 23 nM | 33 nM | 6 nM
O=C1NC(=O)/C(=C/c2cc3cncc(C#Cc4ccsc4)c3o2)S1 [Example 528, (Z)-5-[{7-(Thiophen-3-ylethynyl)furo[3,2-c]pyridin-2-yl}methylene]thiazolidine-2,4-dione] | 638 nM | 24 nM | 92 nM | 8 nM
N#Cc1ccccc1C#Cc1cncc2cc(/C=C3\SC(=S)NC3=O)oc12 [Example 513, (Z)-2-([2-{(4-Oxo-2-thioxothiazolidin-5-ylidene)methyl}furo[3,2-c]pyridin-7-yl]ethynyl)benzonitrile] | 715 nM | 11 nM | 74 nM | 4 nM
O=C1NC(=O)/C(=C/c2cc3cncc(C(=O)NC4CCCCC4)c3o2)S1 [Example 422, (Z)—N-Cyclohexyl-2-{(2,4-dioxothiazolidin-5-ylidene)methyl}furo[3,2-c]pyridine-7-carboxamide] | 1230 nM | 204 nM | 1140 nM | 31 nM

Results, then the compound that gave them:

IC50 (PI3K β (p110β/p85α)(h)) | IC50 (PI3Kγ (p120γ)(h)) | IC50 (PI3Kδ (p110δ/p85α)(h)) | IC50 (PI3Kα (p110α/p85α)(h)) | Structure (SMILES)
> 10000 nM | 12 nM | > 10000 nM | 5 nM | CCOc1ccc(-c2cncc3cc(/C=C4\SC(=O)NC4=O)oc23)cc1Cl [Example 51, (Z)-5-[{7-(3-Chloro-4-ethoxyphenyl)furo[3,2-c]pyridin-2-yl}methylene]thiazolidine-2,4-dione]
208 nM | 654 nM | 117 nM | 35 nM | O=C1NC(=O)/C(=C/c2cc3cncc(-c4ccc(F)cc4F)c3o2)S1 [Example 2, (Z)-5-[{7-(2,4-Difluorophenyl)furo[3,2-c]pyridin-2-yl}methylene]thiazolidine-2,4-dione]
3 nM | 14 nM | 2350 nM | 2 nM | O=C1NC(=O)/C(=C/c2cc3cncc(-c4cccc(OCc5ccccc5)c4)c3o2)S1 [Example 6, (Z)-5-([7-{3-(Benzyloxy)phenyl}furo[3,2-c]pyridin-2-yl]methylene)thiazolidine-2,4-dione]
> 1000 nM | 344 nM | 54 nM | 95 nM | CN1CCN(Cc2ccc(-c3cncc4cc(/C=C5\SC(=O)NC5=O)oc34)cc2)CC1 [Example 134, (Z)-5-{(7-[4-{(4-Methylpiperazin-1-yl)methyl}phenyl]furo[3,2-c]pyridin-2-yl)methylene}thiazolidine-2,4-dione]
77 nM | 9 nM | 37 nM | 8 nM | COc1ccc(-c2cncc3cc(/C=C4\SC(=O)NC4=O)oc23)cc1OC [Example 33, (Z)-5-[{7-(3,4-Dimethoxyphenyl)furo[3,2-c]pyridin-2-yl}methylene]thiazolidine-2,4-dione]
> 10000 nM | 29 nM | 149 nM | 6 nM | O=C1NC(=O)/C(=C/c2cc3cncc(-c4cc5ccccc5s4)c3o2)S1 [Example 14, (Z)-5-[{7-(Benzo[b]thiophen-2-yl)furo[3,2-c]pyridin-2-yl}methylene]thiazolidine-2,4-dione]
1110 nM | 22 nM | 3000 nM | 46 nM | CN(C)S(=O)(=O)c1ccc(-c2cncc3cc(/C=C4\SC(=O)NC4=O)oc23)cc1F [Example 280, (Z)-4-[2-{(2,4-Dioxothiazolidin-5-ylidene)methyl}furo[3,2-c]pyridin-7-yl]-2-fluoro-N,N-dimethylbenzenesulfonamide]
1400 nM | 28 nM | 2500 nM | 16 nM | O=C1NC(=O)/C(=C/c2cc3cncc(-c4ccc(S(=O)(=O)NCCO)cc4)c3o2)S1 [Example 263, (Z)-4-[2-{(2,4-Dioxothiazolidin-5-ylidene)methyl}furo[3,2-c]pyridin-7-yl]-N-(2-hydroxyethyl)benzenesulfonamide]
